Measurements as given in ChEMBL document CHEMBL1201862, “PubChem BioAssay data set” (2004).
One block for each compound: values may come before it. Calls of active or inactive are those of the source.

Key:
[1] = molecular target: T1, Ubiquitin-conjugating enzyme E2 N (Homo sapiens, UniProt P61088); format: functional
T1 sequence (P61088 whole entry): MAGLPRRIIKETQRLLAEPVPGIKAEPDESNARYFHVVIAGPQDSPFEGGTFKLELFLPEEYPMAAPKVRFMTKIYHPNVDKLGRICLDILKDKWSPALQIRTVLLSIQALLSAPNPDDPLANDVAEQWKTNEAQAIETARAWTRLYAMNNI

Bcl-2-like protein 1 = Bcl-2-like protein 1 (Homo sapiens, UniProt Q07817); test: BCL-XL inhibitors, dose response, selectivity assay for MCL1 inhibitor project, biochemical, fluorescence polarization, 1536-well (AID 2218)
Bcl-2-related protein A1 = molecular target: T2, Bcl-2-related protein A1 (Mus musculus, UniProt Q07440); format: functional;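 also: confirmatory dose–response counterscreen on Bfl-1, used to check hits from a UBC13 polyubiquitin inhibitor campaign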
T2 sequence (Q07440 whole entry): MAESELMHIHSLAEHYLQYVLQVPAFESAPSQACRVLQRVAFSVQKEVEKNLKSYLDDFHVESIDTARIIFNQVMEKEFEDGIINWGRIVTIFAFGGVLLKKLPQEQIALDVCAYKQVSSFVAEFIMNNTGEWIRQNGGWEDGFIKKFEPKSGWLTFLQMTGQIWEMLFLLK

[2] = molecular target: T1, Ubiquitin-conjugating enzyme E2 N; format: functional; remark: listed apart in the source
[3] = molecular target: T3, Dual specificity protein phosphatase 6 (Rattus norvegicus, UniProt Q64346); test: MKP-3 phosphatase inhibitors, primary screen, biochemical, rat enzyme, in vitro (AID 425)
T3 sequence (Q64346 whole entry): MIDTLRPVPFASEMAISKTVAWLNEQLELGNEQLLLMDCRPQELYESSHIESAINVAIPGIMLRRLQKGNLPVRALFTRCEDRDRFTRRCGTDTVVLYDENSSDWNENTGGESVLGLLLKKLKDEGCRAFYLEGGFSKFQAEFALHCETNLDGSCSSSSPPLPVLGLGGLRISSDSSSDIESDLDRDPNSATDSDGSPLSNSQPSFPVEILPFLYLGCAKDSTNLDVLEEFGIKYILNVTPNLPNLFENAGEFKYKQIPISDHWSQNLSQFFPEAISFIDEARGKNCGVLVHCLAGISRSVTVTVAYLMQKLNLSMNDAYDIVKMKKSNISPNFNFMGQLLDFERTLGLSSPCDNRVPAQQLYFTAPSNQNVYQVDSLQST

Large T antigen = Large T antigen (Simian virus 40, UniProt P03070); format: functional, Betapolyomavirus macacae;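 also: Confirmatory-stage PubChem screen for compounds that inhibit SV40 T antigen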
Estrogen receptor beta [4] = molecular target: T4, Estrogen receptor beta (Homo sapiens, UniProt Q92731); test: ERβ–SRC-3 coactivator interaction inhibitors, confirmation, orthogonal assay, biochemical, ELISA, streptavidin-HRP readout (AID 1060)
[5] = molecular target: T5, Histone-lysine N-methyltransferase NSD2 (Homo sapiens, UniProt O96028); format: biochemical
T5 sequence (O96028 whole entry): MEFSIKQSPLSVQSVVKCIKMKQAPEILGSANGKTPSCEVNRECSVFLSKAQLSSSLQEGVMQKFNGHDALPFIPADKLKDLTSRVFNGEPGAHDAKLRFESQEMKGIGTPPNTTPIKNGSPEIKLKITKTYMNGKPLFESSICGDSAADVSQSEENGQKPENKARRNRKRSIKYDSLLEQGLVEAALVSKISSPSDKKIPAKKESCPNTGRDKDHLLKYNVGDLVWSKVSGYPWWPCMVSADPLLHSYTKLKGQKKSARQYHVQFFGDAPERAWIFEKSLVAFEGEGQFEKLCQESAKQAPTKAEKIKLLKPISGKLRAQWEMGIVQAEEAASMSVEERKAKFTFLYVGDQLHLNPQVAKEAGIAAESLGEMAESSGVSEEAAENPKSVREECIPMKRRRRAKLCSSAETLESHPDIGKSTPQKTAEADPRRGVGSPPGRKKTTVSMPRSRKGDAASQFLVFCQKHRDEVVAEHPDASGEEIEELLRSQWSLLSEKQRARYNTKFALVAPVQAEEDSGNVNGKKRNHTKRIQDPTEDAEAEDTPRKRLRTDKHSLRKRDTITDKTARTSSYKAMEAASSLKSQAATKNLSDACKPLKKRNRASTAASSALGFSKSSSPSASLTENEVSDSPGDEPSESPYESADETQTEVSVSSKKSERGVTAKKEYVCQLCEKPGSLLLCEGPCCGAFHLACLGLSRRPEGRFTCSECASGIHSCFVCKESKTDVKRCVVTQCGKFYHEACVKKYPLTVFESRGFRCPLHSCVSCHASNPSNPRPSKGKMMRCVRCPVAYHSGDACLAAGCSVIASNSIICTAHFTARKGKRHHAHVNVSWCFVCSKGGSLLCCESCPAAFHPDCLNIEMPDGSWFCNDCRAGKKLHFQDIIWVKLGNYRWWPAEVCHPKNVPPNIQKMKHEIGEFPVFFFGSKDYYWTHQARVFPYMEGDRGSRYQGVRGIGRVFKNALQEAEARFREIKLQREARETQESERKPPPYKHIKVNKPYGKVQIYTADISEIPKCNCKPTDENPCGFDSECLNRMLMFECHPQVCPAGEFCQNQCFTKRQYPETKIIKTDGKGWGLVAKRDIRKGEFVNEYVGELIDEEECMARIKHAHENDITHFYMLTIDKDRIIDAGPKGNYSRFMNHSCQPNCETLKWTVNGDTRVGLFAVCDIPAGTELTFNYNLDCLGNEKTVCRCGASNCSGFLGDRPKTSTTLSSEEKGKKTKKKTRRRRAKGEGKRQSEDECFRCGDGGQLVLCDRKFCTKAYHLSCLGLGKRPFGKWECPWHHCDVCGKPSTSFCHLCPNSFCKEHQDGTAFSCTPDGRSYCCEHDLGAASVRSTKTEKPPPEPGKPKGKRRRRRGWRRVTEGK

[6] = molecular target: Induced myeloid leukemia cell differentiation protein Mcl-1 (Homo sapiens, UniProt Q07820); test: MCL1-BIM BH3 interaction inhibitors, dose response, biochemical, fluorescence polarization, BIM-BH3 peptide, 1536-well (AID 2217)
[7] = molecular target: Intestinal-type alkaline phosphatase (Homo sapiens, UniProt P09923); test: inhibition of human intestinal alkaline phosphatase – biochemical, dose response (AID 488876); format: functional
[8] = molecular target: Intestinal-type alkaline phosphatase (Mus musculus, UniProt P24822); test: PubChem AID 488785; format: functional
Estrogen receptor = molecular target: T6, Estrogen receptor (Homo sapiens, UniProt P03372);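 also: potency for inhibiting coactivator peptide recruitment to the receptor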
T6 sequence (P03372 whole entry): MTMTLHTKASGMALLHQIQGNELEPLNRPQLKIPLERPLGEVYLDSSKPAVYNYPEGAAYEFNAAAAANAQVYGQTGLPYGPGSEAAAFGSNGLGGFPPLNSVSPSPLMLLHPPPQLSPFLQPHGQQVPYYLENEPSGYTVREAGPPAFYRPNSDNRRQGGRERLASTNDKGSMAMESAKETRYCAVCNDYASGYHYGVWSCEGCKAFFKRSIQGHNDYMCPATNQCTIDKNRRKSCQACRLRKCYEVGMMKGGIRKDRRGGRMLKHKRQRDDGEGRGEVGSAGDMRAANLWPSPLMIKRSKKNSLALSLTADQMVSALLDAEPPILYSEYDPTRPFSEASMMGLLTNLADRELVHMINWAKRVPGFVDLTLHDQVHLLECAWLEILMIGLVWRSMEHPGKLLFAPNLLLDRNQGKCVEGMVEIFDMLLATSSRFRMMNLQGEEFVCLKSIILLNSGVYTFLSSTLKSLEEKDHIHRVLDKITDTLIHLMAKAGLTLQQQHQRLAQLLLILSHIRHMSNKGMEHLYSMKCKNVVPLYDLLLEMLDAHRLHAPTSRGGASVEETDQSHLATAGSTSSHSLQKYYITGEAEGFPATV

Estrogen receptor beta [9] = molecular target: T4, Estrogen receptor beta
[10] = molecular target: T7, Alkaline phosphatase, tissue-nonspecific isozyme (Homo sapiens, UniProt P05186); test: TNAP enzyme inhibition by screening hits, dose response, selectivity assay for mouse IAP inhibitor project, biochemical, human TNAP, uHTS hits (AID 488906); format: functional
T7 sequence (P05186 whole entry): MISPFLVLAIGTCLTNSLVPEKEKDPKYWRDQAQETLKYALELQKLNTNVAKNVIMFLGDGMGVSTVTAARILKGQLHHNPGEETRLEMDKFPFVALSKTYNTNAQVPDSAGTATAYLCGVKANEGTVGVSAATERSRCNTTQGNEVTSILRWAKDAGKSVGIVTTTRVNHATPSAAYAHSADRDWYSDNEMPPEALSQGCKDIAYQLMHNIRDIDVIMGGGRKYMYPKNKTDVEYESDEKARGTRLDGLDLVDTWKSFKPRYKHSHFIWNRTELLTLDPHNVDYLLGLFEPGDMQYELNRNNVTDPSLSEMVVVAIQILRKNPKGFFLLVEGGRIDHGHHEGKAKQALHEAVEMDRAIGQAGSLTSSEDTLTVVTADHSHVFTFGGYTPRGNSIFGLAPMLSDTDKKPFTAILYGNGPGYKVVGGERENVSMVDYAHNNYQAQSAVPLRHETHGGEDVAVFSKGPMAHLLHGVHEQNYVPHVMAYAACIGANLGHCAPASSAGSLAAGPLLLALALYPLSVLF

Genome polyprotein = Genome polyprotein (dengue virus type 2, UniProt P29990); test: Dengue-2 NS5 methyltransferase inhibitors, primary screen, biochemical, confirmation dose response (AID 588689); format: functional
[11] = molecular target: Glucose-6-phosphate 1-dehydrogenase (Homo sapiens, UniProt P11413); test: human G6PD enzyme inhibitors, dose response, selectivity assay for P. falciparum G6PD inhibitor project, biochemical, fluorescence (AID 504792); format: functional
[12] = molecular target: T8, Mannose-6-phosphate isomerase (Homo sapiens, UniProt P34949); test: human PMI inhibitors, high substrate, primary screen, biochemical, fluorescence intensity, high mannose 6-phosphate (AID 1220)
T8 sequence (P34949 whole entry): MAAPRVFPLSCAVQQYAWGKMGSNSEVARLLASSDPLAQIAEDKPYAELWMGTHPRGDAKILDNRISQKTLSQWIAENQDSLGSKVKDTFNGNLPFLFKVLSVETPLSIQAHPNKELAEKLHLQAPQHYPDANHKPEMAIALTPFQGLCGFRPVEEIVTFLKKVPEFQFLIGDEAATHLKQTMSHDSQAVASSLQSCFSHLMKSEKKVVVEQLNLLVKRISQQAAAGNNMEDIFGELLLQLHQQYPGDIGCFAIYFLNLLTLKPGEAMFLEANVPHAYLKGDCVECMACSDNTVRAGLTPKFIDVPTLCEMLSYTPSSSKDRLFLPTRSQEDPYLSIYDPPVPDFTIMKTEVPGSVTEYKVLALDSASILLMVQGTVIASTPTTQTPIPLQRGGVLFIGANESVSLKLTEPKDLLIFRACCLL

Albumin = Albumin (Bos taurus, UniProt P02769); test: Counterscreen for inhibitors of T-cell receptor (TCR)-CD3 interaction: Fluorescence-based biochemical high throughput dose response assay to identify inhibitors of T-cell receptor (TCR)-CD3 interaction using a TAMRA-labeled BSA probe.; format: functional
[13] = molecular target: T9, Carboxy-terminal domain RNA polymerase II polypeptide A small phosphatase 1 (Homo sapiens, UniProt Q9GZU7); test: inhibitors of CTDSP1, concentration-response testing, biochemical assay, absorbance-based, actives from ultra-high-throughput screening (AID 540297); format: functional
T9 sequence (Q9GZU7 whole entry): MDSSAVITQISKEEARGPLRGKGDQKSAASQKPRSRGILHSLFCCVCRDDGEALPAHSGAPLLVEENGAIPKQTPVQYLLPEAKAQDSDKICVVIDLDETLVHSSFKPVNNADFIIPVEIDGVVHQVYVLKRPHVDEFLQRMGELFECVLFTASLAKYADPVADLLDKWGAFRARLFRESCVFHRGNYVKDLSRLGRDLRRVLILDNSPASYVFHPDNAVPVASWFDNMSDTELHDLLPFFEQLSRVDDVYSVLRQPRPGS

Leucine aminopeptidase = Leucine aminopeptidase (Plasmodium falciparum 3D7, UniProt Q8IL11); test: P. falciparum M17LAP inhibitors, primary screen, biochemical, fluorogenic H-Leu-NHMec substrate, 1536-well (AID 1619); format: functional
Leucine aminopeptidase, sequence (Q8IL11 whole entry): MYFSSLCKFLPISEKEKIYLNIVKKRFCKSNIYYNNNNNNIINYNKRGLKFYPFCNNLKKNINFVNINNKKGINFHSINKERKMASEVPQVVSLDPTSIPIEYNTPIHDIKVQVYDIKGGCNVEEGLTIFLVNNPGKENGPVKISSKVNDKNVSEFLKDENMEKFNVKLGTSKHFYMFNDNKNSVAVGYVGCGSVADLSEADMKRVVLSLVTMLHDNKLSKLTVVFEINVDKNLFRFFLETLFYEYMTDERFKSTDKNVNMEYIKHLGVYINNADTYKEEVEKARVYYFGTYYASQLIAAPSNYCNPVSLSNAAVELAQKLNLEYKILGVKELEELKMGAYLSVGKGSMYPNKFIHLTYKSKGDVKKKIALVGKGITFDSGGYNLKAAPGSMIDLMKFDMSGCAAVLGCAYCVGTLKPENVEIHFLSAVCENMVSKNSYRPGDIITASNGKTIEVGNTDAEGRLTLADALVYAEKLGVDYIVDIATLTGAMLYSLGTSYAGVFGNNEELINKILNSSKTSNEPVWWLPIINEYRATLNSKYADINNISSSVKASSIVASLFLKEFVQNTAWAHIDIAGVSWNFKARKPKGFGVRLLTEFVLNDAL

T4 sequence (Q92731 whole entry): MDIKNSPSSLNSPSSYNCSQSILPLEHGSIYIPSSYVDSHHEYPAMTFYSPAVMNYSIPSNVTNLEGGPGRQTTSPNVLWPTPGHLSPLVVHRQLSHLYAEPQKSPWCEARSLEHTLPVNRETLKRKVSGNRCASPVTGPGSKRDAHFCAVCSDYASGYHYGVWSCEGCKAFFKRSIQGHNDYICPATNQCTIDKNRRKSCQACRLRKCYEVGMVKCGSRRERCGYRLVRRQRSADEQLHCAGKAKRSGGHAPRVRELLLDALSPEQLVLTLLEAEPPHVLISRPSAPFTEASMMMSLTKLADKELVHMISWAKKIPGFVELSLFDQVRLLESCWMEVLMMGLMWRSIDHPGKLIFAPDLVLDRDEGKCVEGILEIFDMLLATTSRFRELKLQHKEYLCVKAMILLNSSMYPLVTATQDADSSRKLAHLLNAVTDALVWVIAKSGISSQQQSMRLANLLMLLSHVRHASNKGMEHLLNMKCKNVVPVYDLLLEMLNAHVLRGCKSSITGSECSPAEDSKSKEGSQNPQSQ
Bcl-2-like protein 1, sequence (Q07817 whole entry): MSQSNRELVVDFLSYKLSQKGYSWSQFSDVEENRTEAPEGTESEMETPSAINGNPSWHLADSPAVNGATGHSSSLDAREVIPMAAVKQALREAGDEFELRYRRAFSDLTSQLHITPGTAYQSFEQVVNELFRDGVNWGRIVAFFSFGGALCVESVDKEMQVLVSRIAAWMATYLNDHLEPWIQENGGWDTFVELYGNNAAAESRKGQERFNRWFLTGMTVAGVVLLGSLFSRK
Induced myeloid leukemia cell differentiation protein Mcl-1, sequence (Q07820 whole entry): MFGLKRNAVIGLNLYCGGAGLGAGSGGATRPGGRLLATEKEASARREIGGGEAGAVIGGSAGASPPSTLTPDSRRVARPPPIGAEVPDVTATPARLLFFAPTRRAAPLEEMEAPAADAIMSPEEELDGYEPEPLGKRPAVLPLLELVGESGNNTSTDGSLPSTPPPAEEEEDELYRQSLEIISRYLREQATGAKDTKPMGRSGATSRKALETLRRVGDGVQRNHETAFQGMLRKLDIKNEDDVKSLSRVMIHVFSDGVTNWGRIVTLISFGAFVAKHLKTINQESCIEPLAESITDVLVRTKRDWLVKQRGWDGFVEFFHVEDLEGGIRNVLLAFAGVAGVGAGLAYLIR
Intestinal-type alkaline phosphatase (Mus musculus, UniProt P24822), sequence (P24822 whole entry): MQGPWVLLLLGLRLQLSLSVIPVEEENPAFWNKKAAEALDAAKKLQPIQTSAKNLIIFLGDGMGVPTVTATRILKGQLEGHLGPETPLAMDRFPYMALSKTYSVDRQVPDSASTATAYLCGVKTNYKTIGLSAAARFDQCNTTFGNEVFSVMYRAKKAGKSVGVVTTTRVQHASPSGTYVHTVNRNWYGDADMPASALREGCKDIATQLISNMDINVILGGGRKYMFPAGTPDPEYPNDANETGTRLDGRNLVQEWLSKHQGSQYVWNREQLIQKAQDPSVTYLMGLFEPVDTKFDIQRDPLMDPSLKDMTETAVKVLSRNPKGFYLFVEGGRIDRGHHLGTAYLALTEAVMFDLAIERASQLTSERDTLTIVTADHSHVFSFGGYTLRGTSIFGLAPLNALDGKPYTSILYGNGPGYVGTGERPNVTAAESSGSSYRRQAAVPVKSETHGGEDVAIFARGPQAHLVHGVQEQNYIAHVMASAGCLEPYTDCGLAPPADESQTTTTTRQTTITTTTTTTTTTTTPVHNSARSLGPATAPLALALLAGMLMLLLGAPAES
Glucose-6-phosphate 1-dehydrogenase, sequence (P11413 whole entry): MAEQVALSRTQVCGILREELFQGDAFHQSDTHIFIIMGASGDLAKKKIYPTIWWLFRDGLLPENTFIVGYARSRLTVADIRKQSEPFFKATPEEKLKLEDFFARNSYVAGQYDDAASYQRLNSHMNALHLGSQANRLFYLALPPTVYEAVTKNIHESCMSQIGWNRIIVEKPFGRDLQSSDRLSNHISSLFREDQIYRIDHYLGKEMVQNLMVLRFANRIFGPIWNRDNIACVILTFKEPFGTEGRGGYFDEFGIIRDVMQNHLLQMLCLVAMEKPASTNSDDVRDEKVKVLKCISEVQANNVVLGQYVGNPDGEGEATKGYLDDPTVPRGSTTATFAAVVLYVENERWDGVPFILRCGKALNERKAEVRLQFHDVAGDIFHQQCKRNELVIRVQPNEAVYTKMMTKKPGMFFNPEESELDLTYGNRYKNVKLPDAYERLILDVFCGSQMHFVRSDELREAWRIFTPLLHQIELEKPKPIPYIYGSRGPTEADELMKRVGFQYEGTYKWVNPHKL
Large T antigen, sequence (P03070 whole entry): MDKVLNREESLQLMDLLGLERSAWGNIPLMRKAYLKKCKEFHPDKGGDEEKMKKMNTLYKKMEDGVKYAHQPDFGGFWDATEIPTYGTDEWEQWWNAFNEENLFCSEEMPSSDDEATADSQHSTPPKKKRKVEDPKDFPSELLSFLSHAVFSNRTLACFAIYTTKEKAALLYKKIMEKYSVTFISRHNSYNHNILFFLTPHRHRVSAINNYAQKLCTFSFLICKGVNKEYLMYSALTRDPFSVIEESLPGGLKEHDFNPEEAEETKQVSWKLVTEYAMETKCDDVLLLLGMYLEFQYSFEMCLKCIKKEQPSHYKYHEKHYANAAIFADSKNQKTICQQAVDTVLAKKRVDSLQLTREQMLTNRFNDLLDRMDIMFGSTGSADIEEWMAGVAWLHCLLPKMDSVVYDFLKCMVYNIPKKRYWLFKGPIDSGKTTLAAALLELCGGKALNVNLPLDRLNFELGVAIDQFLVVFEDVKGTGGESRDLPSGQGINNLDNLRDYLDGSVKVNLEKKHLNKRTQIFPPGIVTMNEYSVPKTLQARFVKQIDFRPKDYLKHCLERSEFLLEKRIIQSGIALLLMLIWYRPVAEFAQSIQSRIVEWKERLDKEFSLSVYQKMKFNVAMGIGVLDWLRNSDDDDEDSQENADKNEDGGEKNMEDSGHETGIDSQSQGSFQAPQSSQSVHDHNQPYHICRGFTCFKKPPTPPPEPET
Intestinal-type alkaline phosphatase (Homo sapiens, UniProt P09923), sequence (P09923 whole entry): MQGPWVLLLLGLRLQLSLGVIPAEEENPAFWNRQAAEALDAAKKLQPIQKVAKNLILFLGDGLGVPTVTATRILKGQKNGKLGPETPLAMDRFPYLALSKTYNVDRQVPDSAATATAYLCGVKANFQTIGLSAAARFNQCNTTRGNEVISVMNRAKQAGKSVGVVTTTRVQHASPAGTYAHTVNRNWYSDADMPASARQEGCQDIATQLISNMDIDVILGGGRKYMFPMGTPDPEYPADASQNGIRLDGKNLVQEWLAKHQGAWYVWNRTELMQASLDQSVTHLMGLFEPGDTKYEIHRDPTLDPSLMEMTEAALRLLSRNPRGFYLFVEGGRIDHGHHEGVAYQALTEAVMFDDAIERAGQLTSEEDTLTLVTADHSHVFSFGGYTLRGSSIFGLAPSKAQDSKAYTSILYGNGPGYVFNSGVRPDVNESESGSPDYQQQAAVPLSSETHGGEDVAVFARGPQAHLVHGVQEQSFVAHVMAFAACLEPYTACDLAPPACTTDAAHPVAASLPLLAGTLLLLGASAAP
Genome polyprotein, sequence (P29990 2492-3391 limits assumed): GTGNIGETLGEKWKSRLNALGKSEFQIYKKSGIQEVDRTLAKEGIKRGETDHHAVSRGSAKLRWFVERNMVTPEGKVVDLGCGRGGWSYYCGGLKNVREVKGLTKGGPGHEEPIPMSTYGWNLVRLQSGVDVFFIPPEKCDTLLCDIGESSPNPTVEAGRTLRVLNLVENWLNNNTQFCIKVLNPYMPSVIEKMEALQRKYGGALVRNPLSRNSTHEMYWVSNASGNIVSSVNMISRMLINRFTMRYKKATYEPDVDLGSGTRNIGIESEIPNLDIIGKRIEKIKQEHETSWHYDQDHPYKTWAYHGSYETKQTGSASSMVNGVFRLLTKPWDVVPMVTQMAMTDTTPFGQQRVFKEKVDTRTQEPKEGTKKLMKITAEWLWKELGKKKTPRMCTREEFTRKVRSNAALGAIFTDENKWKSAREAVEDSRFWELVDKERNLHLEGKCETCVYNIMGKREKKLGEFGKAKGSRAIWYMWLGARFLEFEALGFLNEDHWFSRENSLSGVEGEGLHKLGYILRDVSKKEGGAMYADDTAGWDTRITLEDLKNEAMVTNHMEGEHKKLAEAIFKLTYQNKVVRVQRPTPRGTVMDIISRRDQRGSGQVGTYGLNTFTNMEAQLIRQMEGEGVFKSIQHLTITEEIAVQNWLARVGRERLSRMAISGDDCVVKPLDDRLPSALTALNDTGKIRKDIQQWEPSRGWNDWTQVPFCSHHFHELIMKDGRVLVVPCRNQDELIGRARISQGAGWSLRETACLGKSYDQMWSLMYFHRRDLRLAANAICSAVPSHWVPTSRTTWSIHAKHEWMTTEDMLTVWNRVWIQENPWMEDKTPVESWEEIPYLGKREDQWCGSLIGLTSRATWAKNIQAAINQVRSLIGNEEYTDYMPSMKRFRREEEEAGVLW

Structure (SMILES): c1coc(-c2nc(-c3ccco3)c(-c3ccco3)nc2-c2ccco2)c1
IC50 [1]: 8.49 µM (active) | IC50 (Bcl-2-like protein 1): > 109 µM (not active) | IC50 (Bcl-2-related protein A1): 0.36 µM (active) | IC50 [2]: 3.79 µM (active) | IC50 [3]: > 10 µM (not active) | IC50 (Large T antigen): 76.4 µM (active) | IC50 (Estrogen receptor beta [4]): > 50 µM (not active) | AC50 [5]: > 20 µM (inactive) | IC50 [6]: > 1.34 µM (active)

Structure (SMILES): CN(c1ccccc1C(=O)O)S(=O)(=O)c1ccc2c3c(cccc13)C(=O)N2
IC50 [7]: > 100 µM (inactive) | IC50 [8]: 11.3 µM (active) | IC50 (Estrogen receptor): 18.7 µM (active) | IC50 (Estrogen receptor beta [9]): 3.85 µM (active) | IC50 [10]: > 100 µM (inactive) | IC50 (Estrogen receptor beta [4]): 6.16 µM (not active)

Structure (SMILES): O=C(CCc1ccc(S(=O)(=O)N2CCOCC2)cc1)N/N=C/c1ccc(O)c(O)c1O
IC50 (Genome polyprotein): 51.3 µM (active) | IC50 (Bcl-2-like protein 1): > 109 µM (not active) | IC50 [11]: 48.7 µM (inactive) | IC50 [12]: 16.4 µM (active) | IC50 (Albumin): > 94.1 µM (inactive) | IC50 [6]: 2.33 µM (active)

The next lines start with the values.

IC50 (Estrogen receptor): 9.49 µM (active) | IC50 [13]: 3.87 µM (active) | IC50 (Estrogen receptor beta [9]): 5.52 µM (active) | IC50 (Estrogen receptor beta [4]): 0.127 µM (not active)
Structure (SMILES): CC1CCN(S(=O)(=O)c2ccc(NC(=O)Cc3cccs3)cc2)CC1

IC50 (Leucine aminopeptidase): 4.71 µM (active)
Structure (SMILES): CCCCc1ccc(C(=O)NC(C(=O)O)C(C)C)cc1 (stereo unspecified)
